Patent publication US10710994B2, “Oxadiazole transient receptor potential channel inhibitors” (Genentech, Inc., priority 2018, dated 2020)
Counter-ions that a name gives are not always drawn. Like-named read-outs stand apart in the source and are kept apart here.

Molecular target: human TRPA1 channel (Homo sapiens (Human), UniProt O75762)
Test: hTRPA1 CHO Ca2+ FLIPR Tetra assay: block of cinnamaldehyde induced calcium influx
Type: cell-based
Conditions: CHO cells expressing TRPA1, Hill coefficient fixed to 1.5
Procedure, shortened: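 TRPA1-expressing CHO cells loaded with calcium indicator dye (1 h 37° C, then 15 min room temperature) in HBSS/20 mM HEPES pH 7.4/0.02% BSA. IC50 from fits with fixed Hill coefficient.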

[1] = read-out: hTRPA1 IC50 10 min, 10 minutes incubation with compound before cinnamaldehyde (about EC80)
[2] = read-out: hTRPA1 IC50 90 min, 90 minutes incubation with compound before cinnamaldehyde (about EC80)

Sequence of human TRPA1 channel (O75762 whole entry): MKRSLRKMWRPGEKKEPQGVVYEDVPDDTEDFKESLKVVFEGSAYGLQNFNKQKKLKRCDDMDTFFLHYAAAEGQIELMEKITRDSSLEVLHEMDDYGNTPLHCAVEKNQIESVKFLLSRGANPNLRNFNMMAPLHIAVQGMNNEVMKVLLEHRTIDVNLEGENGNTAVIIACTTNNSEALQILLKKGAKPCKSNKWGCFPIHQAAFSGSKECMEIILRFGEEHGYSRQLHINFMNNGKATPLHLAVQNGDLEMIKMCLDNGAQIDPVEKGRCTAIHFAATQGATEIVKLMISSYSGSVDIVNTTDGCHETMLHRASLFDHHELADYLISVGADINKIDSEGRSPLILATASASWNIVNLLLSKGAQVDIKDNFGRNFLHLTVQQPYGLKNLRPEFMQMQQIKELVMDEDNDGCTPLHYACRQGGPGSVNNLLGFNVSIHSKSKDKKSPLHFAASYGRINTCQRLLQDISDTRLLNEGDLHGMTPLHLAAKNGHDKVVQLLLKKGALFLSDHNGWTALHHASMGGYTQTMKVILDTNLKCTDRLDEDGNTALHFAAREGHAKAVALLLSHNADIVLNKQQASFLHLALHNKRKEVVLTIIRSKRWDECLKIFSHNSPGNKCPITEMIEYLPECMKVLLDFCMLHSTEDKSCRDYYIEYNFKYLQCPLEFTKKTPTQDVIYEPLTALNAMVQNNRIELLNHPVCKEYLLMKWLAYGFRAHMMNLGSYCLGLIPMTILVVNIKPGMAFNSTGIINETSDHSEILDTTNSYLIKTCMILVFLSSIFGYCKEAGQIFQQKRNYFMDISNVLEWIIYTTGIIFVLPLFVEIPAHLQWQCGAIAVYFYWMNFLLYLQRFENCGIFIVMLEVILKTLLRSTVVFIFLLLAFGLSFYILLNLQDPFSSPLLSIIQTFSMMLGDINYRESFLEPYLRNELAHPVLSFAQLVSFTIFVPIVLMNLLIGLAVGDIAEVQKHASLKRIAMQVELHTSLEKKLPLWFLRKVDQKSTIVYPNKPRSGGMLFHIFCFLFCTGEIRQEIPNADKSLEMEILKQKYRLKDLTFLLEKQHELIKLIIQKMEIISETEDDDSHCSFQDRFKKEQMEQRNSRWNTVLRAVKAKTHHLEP

| IC50 [1] [nM] | IC50 [2] [nM] | SMILES |
| --- | --- | --- |
| 7.42 | 3.1 | Cn1cnc2c(C#N)nn(Cc3nc([C@@H]4CO[C@@H](c5ccc(Cl)cc5)C4)no3)c(=O)c21 [Example 131, 6-((3-((3R,5R)-5-(4-chlorophenyl)tetrahydro-furan-3-yl)-1,2,4-oxadiazol-5-yl)methyl)-1-methyl-7-oxo-6,7-dihydro-1H-imidazo[4,5-d]pyridazine-4-carbonitrile] |
| 20 | 6 | Cc1ccnc2c1c(=O)nc(N)n2Cc1nc([C@@H]2CO[C@@H](c3ccc(Cl)cc3)C2)no1 [Example 134, 2-amino-1-((3-((3R,5R)-5-(4-chlorophenyl)tetrahydro-furan-3-yl)-1,2,4-oxadiazol-5-yl)methyl)-5-methylpyrido[2,3-d] pyrimidin-4(1H)-one] |
| 10.4 | 1.5 | Cc1ccnc2nc(N)n(Cc3nc([C@@H]4CO[C@@H](c5ccc(Cl)cc5)C4)no3)c(=O)c12 [Example 135, 2-amino-3-((3-((3R,5R)-5-(4-chlorophenyl)tetrahydro-furan-3-yl)-1,2,4-oxadiazol-5-yl)methyl)-5-methylpyrido[2,3-d] pyrimidin-4(3H)-one] |
| 80.1 | 43 | Cn1nnc2cnn(Cc3nc([C@@H]4CO[C@@H](c5ccc(Cl)cc5)C4)no3)c(=O)c21 [Example 140, 5-((3-((3R,5R)-5-(4-chlorophenyl)tetrahydro-furan-3-yl)-1,2,4-oxadiazol-5-yl)methyl)-3-methyl-3,5-dihydro-4H-[1,2,3]triazolo[4,5-d]pyridazin-4-one] |
| 30.9 | 11 | Cn1cnc2nnn(Cc3nc([C@@H]4CO[C@@H](c5ccc(Cl)cc5)C4)no3)c(=O)c21 [Example 141, 3-((3-((3R,5R)-5-(4-chlorophenyl)tetrahydro-furan-3-yl)-1,2,4-oxadiazol-5-yl)methyl)-5-methyl-3,5-dihydro-4H-imidazo[4,5-d][1,2,3] triazin-4-one] |
| 56.9 | 6.6 | Nc1nn2ncc(Cl)c2c(=O)n1Cc1nc([C@@H]2CO[C@@H](c3ccc(F)cc3)C2)no1 [Example 143, 2-amino-5-chloro-3-((3-((3R,5R)-5-(4-fluorophenyl)tetrahydro-furan-3-yl)-1,2,4-oxadiazol-5-yl)methyl)pyrazolo[5,1-f][1,2,4]triazin-4(3H)-one] |
| 9.28 | 46 | Cc1c(N)nn2ncn(Cc3nc([C@@H]4CO[C@@H](c5ccc(F)cc5)C4)no3)c(=O)c12 [Example 145, 6-amino-3-((3-((3R,5R)-5-(4-fluorophenyl)tetrahydro-furan-3-yl)-1,2,4-oxadiazol-5-yl)methyl)-5-methylpyrazolo[5,1-f][1,2,4]triazin-4(3H)-one] |
| 2600 | 97 | O=c1c2c(cnn1Cc1nc([C@@H]3CO[C@@H](c4ccc(Cl)cc4)C3)no1)CNCC2 [Example 146, 2-((3-((3R,5R)-5-(4-chlorophenyl)tetrahydro-furan-3-yl)-1,2,4-oxadiazol-5-yl)methyl)-5,6,7,8-tetrahydropyrido[3,4-d] pyridazin-1(2H)-one hydrochloride] |
| 4.48 | 2.1 | Nc1nn2c(C(F)(F)F)ncc2c(=O)n1Cc1nc([C@@H]2CO[C@@H](c3ccc(Cl)cc3)C2)no1 [Example 149, 2-amino-3-((3-((3R,5R)-5-(4-chlorophenyl)tetrahydro-furan-3-yl)-1,2,4-oxadiazol-5-yl)methyl)-7-(trifluoromethyl)imidazo [5,1-f][1,2,4]triazin-4(3H)-one] |
| 3.19 | 1.7 | Cn1ncc2nc(N)n(Cc3nc([C@@H]4CO[C@@H](c5ccc(Cl)cc5)C4)no3)c(=O)c21 [Example 150, 5-amino-6-((3-((3R,5R)-5-(4-chlorophenyl)tetrahydro-furan-3-yl)-1,2,4-oxadiazol-5-yl)methyl)-1-methyl-1,6-dihydro-7H-pyrazolo[4,3-d] pyrimidin-7-one] |
| 47 | 32 | Cn1ncc2ncn(Cc3nc([C@@H]4CO[C@@H](c5ccc(Cl)cc5)C4)no3)c(=O)c21 [Example 151, 6-((3-((3R,5R)-5-(4-chlorophenyl)tetrahydro-furan-3-yl)-1,2,4-oxadiazol-5-yl)methyl)-1-methyl-1,6-dihydro-7H-pyrazolo[4,3-d] pyrimidin-7-one] |
| 10.3 | 7.5 | Nc1nc2cccnc2n1Cc1nc([C@@H]2CO[C@@H](c3ccc(Cl)cc3)C2)no1 [Example 155, 3-[[3-[(3R,5R)-5-(4-chlorophenyl)tetrahydro-furan-3-yl]-1,2,4-oxadiazol-5-yl]methyl]imidazo[4,5-b]pyridin-2-amine] |

Continued, compound first:

| SMILES | IC50 [1] [nM] | IC50 [2] [nM] |
| --- | --- | --- |
| Cc1ccnc2nc(N)n(Cc3nc([C@@H]4CO[C@@H](c5ccc(F)cc5)C4)no3)c(=O)c12 [Example 133, 2-amino-3-((3-((3R,5R)-5-(4-fluorophenyl)tetra-hydrofuran-3-yl)-1,2,4-oxadiazol-5-yl)methyl)-5-methylpyrido[2,3-d] pyrimidin-4(3H)-one] | 13.4 | 1.4 |
| Cn1cnc2nc(N)n(Cc3nc([C@@H]4CO[C@@H](c5ccc(C(F)(F)F)cc5)C4)no3)c(=O)c21 [Example 136, 2-amino-7-methyl-1-((3-((3R,5R)-5-(4-(trifluoromethyl)phenyl)tetrahydrofuran-3-yl)-1,2,4-oxadiazol-5-yl)methyl)-1,7-dihydro-6H-purin-6-one] | 97.3 | 11 |
| Cc1nc2ncn(C)c2c(=O)n1Cc1nc([C@@H]2CO[C@@H](c3ccc(F)cc3)C2)no1 [Example 137, 1-((3-((3R,5R)-5-(4-fluorophenyl)tetrahydro-furan-3-yl)-1,2,4-oxadiazol-5-yl)methyl)-2,7-dimethyl-1,7-dihydro-6H-purin-6-one] | 64.1 | 13 |
| Cc1cnn2ncn(Cc3nc([C@@H]4CO[C@@H](c5ccc6cnn(C)c6c5)C4)no3)c(=O)c12 [Example 138, 5-methyl-3-((3-((3R,5R)-5-(1-methyl-1H-indazol-6-yl)tetrahydrofuran-3-yl)-1,2,4-oxadiazol-5-yl)methyl)pyrazolo[5,1-f][1,2,4]triazin-4(3H)-one] | 8.26 | 2.3 |
| Cc1cnn2ncn(Cc3nc([C@@H]4CO[C@@H](c5ccc6cn[nH]c6c5)C4)no3)c(=O)c12 [Example 139, 3-((3-((3R,5R)-5-(1H-indazol-6-yl)tetrahydrofuran-3-yl)-1,2,4-oxadiazol-5-yl)methyl)-5-methylpyrazolo[5,1-f] [1,2,4]triazin-4(3H)-one] | 19.5 | 7.5 |
| Cc1cnn2ncn(Cc3nc([C@@H]4CO[C@@H](c5ccc6ncsc6c5)C4)no3)c(=O)c12 [Example 142, 3-((3-((3R,5R)-5-(benzo[d]thiazol-6-yl)tetrahydrofuran-3-yl)-1,2,4-oxadiazol-5-yl)methyl)-5-methylpyrazolo[5,1-f] [1,2,4]triazin-4(3H)-one] | 81.7 | 40 |
| Cn1cnc2nc(N)n(Cc3nc([C@@H]4CO[C@@H](c5ccc(F)cc5)C4)no3)c(=O)c21 [Example 144, 2-amino-1-((3-((3R,5R)-5-(4-fluorophenyl)tetrahydro-furan-3-yl)-1,2,4-oxadiazol-5-yl)methyl)-7-methyl-1,7-dihydro-6H-purin-6-one] | 56.9 | 6.6 |
| O=c1c2cccnc2ncn1Cc1nc([C@@H]2CO[C@@H](c3ccc(F)cc3)C2)no1 [Example 147, 3-((3-((3R,5R)-5-(4-fluorophenyl)tetrahydro-furan-3-yl)-1,2,4-oxadiazol-5-yl)methyl)pyrido[2,3-d]pyrimidin-4(3H)-one] | 107 | 82 |
| Cc1cnn2ncn(Cc3nc([C@@H]4CO[C@@H](c5ccc(Cl)cn5)C4)no3)c(=O)c12 [Example 148, 3-((3-((3R,5R)-5-(5-chloropyridin-2-yl)tetrahydrofuran-3-yl)-1,2,4-oxadiazol-5-yl)methyl)-5-methylpyrazolo[5,1-f] [1,2,4]triazin-4(3H)-one] | 21.3 | 14 |
